The text below walks through data of article PMC3700072, “Synthesis, Anti-Inflammatory, and Ulcerogenicity Studies of Novel Substituted and Fused Pyrazolo[3,4-d]pyrimidin-4-ones” (Scientia Pharmaceutica, 2013).

One data set deals with gastric mucosa of rats. Briefly: gastric ulcerogenic effect (Meshali's method, ulcer index by Robert's method). Format: in vivo, rat. On the set-up: key to Ulcer index: ulcer index = %incidence/10 + avg no. of ulcers + avg severity (0–4). The protocol:
The ulcer index was calculated according to Robert’s method.
Adult male albino rats weighing between 100 and 120 g were used. Animals were divided into groups of five animals each. Rats were fasted 20 h before drug administration. Water was given ad libitum. The control group received the vehicle (1% gum acacia) orally. Other groups received indomethacin or test compounds orally in a dose of 10 mg/kg body weight suspended in 1% gum acacia. Rats were fasted for 2 h, allowed to feed for 2 h, then fasted for another 20 h. Rats were given another two doses on the second and third days. On the fourth day, rats were sacrificed by diethyl ether; the stomach of each rat was removed, opened along the greater curvature, and rinsed with cold 0.9% saline. The stomach was stretched, by pins, on a corkboard and inspected with a 3x magnifying lens for any evidence of mucosal damage. The ulcer index was calculated according to Robert’s method. The number of mucosal damage (red spots) was counted and their severity (ulcerogenic severity) was graded from 0 to 4 according to the following score assignment:
The following figures were calculated: • –– % Incidence/10 = [number of rats showing ulcer of any grade divided by total number of rats in the group × 100]/10. • –– Average number of ulcers: number of ulcers in the group/total number of rats in the group. • –– Average severity: Σ [each ulcer multiplied by its score of severity]/number of ulcers in the group. • Ulcer index = the sum of the 3 figures. • Results are tabulated in Table 2.

In data set [1] the test system is carrageenan-induced rat paw edema. Briefly: carrageenan-induced rat paw edema test. The note with it: rats, 10 mg/kg intraperitoneally, 4 h after carrageenan. Format: in vivo. More on the design: Mean increase in edema weight ± SEM: unit not given here. The procedure:
The in vivo anti-inflammatory effects of the newly synthesized pyrazolopyrimidine derivatives were assessed by utilizing the functional model of carrageenan-induced rat paw edema using indomethacin as the reference drug. Mean changes and the percent increase in paw edema weight of animals pretreated with the tested compounds after 4 h from the induction of inflammation were measured, together with the percent inhibition of induced rat paw edema by the tested compounds. The anti-inflammatory activity (relative potency) of the tested compounds relative to that of indomethacin was also calculated (Table 1) (Fig. 2).
The in vivo carrageenan-induced rat paw edema model of inflammation was used to evaluate the anti-inflammatory properties of the newly synthesized compounds according to the previously reported Winter et al. method.
Adult male albino rats weighing 100–120 g (obtained from the animal house of the department of Physiology, Faculty of Medicine, Alexandria University) were used throughout the work. Animals were randomly divided into groups of six rats each. They were kept in an animal house under standard conditions of light and temperature with free access to food and water ad libitum and allowed to be accustomed to their environment for two days before testing.
Indomethacin, used as a reference standard (Khahira for Pharmaceutical and Chemical Industry, Cairo, Egypt), and the test compounds were dissolved in DMSO and were injected intraperitoneally at a dose level of 10 mg/kg body weight. Control animals, on the other hand, were intraperitoneally injected with appropriate volume of DMSO only. After one hour of the above treatment, an inflammatory edema in the right hind paw of all animals was induced by subcutaneous injection of 0.05 ml of freshly prepared solution of 1% carrageenan (λ-Carrageenan Sigma–Aldrich Corp. St. Louis, MO, USA) in sterile normal saline (0.9%), into the subplantar tissue of the paw. An equal volume of saline was injected to the left hind paw and served as internal control for the degree of inflammation in the right hind paw.
Four hours after carrageenan injection, animals were decapitated and both the right and left hind paws were excised at a standard point and weighed. The difference in weight from edema between right and left paws was taken as a measure of the degree of inflammation for each animal. The mean increase in weight of the carrageenan-injected paw over the other paw in each group was measured and the percent increase of edema was calculated. The anti-inflammatory efficacy of the tested compounds was assessed by comparing the change in paw weight in the treated animals with that in control animals (treated with DMSO only) and expressed as a percent inhibition of the edema (percent protection against inflammation), calculated according to the following equation: % Inhibition of edema=(1-Wt/Wc)×100 where Wt is the mean increase in paw weight in rats treated with the test compounds and Wc is the mean increase in paw weight in the control group. The anti-inflammatory activity of the test compounds relative to that of indomethacin was also determined (Table 2).
In the anti-inflammatory study, data obtained were expressed as the mean ± standard error (SEM). Statistical significance was determined by comparing the values of the test compounds and the standard with those obtained from the control group of animals using One-way ANOVA with Dunnett’s post-test using the GraphPad Prism version 3.00 for Windows (GraphPad Software, San Diego California USA, www.graphpad.com). The difference in results was considered significant if P < 0.001.
On the technique in general: Carrageenan injected into the paw causes an acute inflammation.

Another data set concerns the target cyclooxygenase-1. On the set-up: method as in PMID 15044055. The note with it: intact cell assays; cited from earlier work.
In another data set the target is cyclooxygenase-2. On the set-up: method as in PMID 15044055. The note with it: intact cell assays; cited from earlier work.

Usually melting point stands for the temperature, or range, at which the solid turns liquid. The compound `Cc1nc2c(cnn2-c2ccccc2)c(=O)n1N=c1scc(-c2ccc(Cl)cc2)n1-c1ccc(Cl)cc1` [Compound 11f, 5-{[3,4-Bis(4-chlorophenyl)-1,3-thiazol-2(3H)-ylidene]amino}-6-methyl-1-phenyl-1,5-dihydro-4H-pyrazolo[3,4-d]pyrimidin-4-one] gave a melting point of 272 to 275 °C. Besides, in the data set with gastric mucosa of rats (oral 10 mg/kg), the “% ulceration in the population of test animals” value is 40–60%. The “Average No. of ulcer” value in the data set on gastric mucosa of rats (oral 10 mg/kg on three days) amounted to 1.6. In addition, the “% Incidence/10” value with gastric mucosa of rats (oral 10 mg/kg on three days, 5 animals per group) was found to be 4. In addition, the “% Ulcerogenicity relative to indomethacin” value in the data set on gastric mucosa of rats (oral 10 mg/kg on three days, indomethacin = 100, 10 mg/kg) came to 41.13%. For the same compound, in the data set on gastric mucosa of rats (oral 10 mg/kg on three days, score 0 to 4), the Average severity was 1.5. In addition, the Ulcer index in the data set on gastric mucosa of rats (oral 10 mg/kg on three days, sum of the 3 figures) came to 7.10. Also, in data set [1] (Rattus norvegicus, ip, 4 h, read-out: %Inhibition of Paw edema from control group (edema reduction)), the inhibition in vivo at 10 mg/kg is 65%. Moreover, the change in vivo at 10 mg/kg in data set [1] (Rattus norvegicus, ip, N = 6, read-out: Mean % increase in edema weight ± SEM) came to 9.29 ± 0.961%. The “Mean increase in edema weight ± SEM” value in data set [1] (N = 6) is recorded as 0.55 ± 0.043. Also, the “% Activity relative to indomethacine” value in data set [1] (indomethacin = 100) was determined as 95.33%.
The term IC50 denotes the concentration needed to halve the response being measured. Turning to `CN(C)c1nc(NCc2ccccc2)c2cnn(C(C)(C)C)c2n1` [II], the IC50 at cyclooxygenase-1 is 59.6 nM; at cyclooxygenase-2, 0.9 nM.
